Target: T1, Met kinase domain (GST fusion protein) (Homo sapiens, UniProt P08581)
T1 construct: Purified GST fusion protein containing the Met kinase domain
Test: Met transphosphorylation assay (ELISA, poly(glu-tyr) substrate);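 further: Cell-free ELISA with plate-bound poly(Glu:Tyr 4:1) phosphorylated by GST-fused Met kinase domain plus ATP and Mn2+, phosphotyrosine detected by anti-phosphotyrosine antibody with HRP and ABTS read-out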
Format: biochemical
Settings: Table 2; read-out: Met IC50

T1 sequence (P08581 1078-1345 limits assumed): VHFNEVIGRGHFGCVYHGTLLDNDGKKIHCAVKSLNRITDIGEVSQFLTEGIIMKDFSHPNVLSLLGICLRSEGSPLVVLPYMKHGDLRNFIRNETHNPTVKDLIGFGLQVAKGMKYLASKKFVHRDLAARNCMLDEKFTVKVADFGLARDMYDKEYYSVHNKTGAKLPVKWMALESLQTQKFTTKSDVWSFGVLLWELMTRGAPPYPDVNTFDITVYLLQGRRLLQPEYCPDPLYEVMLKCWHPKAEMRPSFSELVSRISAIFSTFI

| IC50 | SMILES |
| --- | --- |
| 500 nM | CN(C)CCS(=O)(=O)Nc1cccc(-c2cnc(N)c(OCc3c(F)ccc(F)c3Cl)c2)c1 [Example I-259, 2-Dimethylamino-ethanesulfonic acid {3-[6-amino-5-(2-chloro-3,6-difluoro-benzyloxy)-pyridin-3-yl]-phenyl}-amide] |
| 1630 nM | Nc1ncc(-c2cccc(NS(=O)(=O)CCN3CCCCC3)c2)cc1OCc1c(F)ccc(F)c1Cl [Example I-260, 2-Pipendin-1-yl-ethanesulfonic acid {3-[6-amino-5-(2-chloro-3,6-difluoro-benzyloxy)-pyridin-3-yl]-phenyl}-amide] |
| 1700 nM | Nc1ncc(-c2cccc(NS(=O)(=O)CCN3CC[C@@H](CO)C3)c2)cc1OCc1c(F)ccc(F)c1Cl [Example I-261, 2-[(3R)-3-Hydroxymethyl-pyrrolidin-1-yl]-ethanesulfonic acid {3-[6-amino-5-(2-chloro-3,6-difluoro-benzyloxy)-pyridin-3-yl]-phenyl}-amide] |
| 1500 nM | Nc1ncc(-c2cccc(NS(=O)(=O)CCN3CCC(O)CC3)c2)cc1OCc1c(F)ccc(F)c1Cl [Example I-262, 2-(4-Hydroxy-piperidin-1-yl)-ethanesulfonic acid {3-[6-amino-5-(2-chloro-3,6-difluoro-benzyloxy)-pyridin-3-yl]-phenyl}-amide] |
| 1140 nM | Nc1ncc(-c2cccc(NS(=O)(=O)CCN3CCN(C(=O)CO)CC3)c2)cc1OCc1c(F)ccc(F)c1Cl [Example I-263, 2-[4-(2-Hydroxy-acetyl)-piperazin-1-yl]-ethanesulfonic acid {3-[6-amino-5-(2-chloro-3,6-difluoro-benzyloxy)-pyridin-3-yl]-phenyl}-amide] |
| 1100 nM | Nc1ncc(-c2cccc(NS(=O)(=O)CCN3CC[C@@H](O)C3)c2)cc1OCc1c(F)ccc(F)c1Cl [Example I-264, 2-[(3R)-3-Hydroxy-pyrrolidin-1-yl]-ethanesulfonic acid {3-[6-amino-5-(2-chloro-3,6-difluoro-benzyloxy)-pyridin-3-yl]-phenyl}-amide] |
| 1000 nM | Nc1ncc(-c2cccc(NS(=O)(=O)CCNCC3CC3)c2)cc1OCc1c(F)ccc(F)c1Cl [Example I-265, 2-(Cyclopropylmethyl-amino)-ethanesulfonic acid {3-[6-amino-5-(2-chloro-3,6-difluoro-benzyloxy)-pyridin-3-yl]-phenyl}-amide] |
| 900 nM | Nc1ncc(-c2cccc(NS(=O)(=O)CCNC3CC3)c2)cc1OCc1c(F)ccc(F)c1Cl [Example I-266, 2-Cyclopropylamino-ethanesulfonic acid {3-[6-amino-5-(2-chloro-3,6-difluoro-benzyloxy)-pyridin-3-yl]-phenyl}-amide] |
| 4000 nM | Nc1ncc(-c2cccc(N3CCCC3)c2)cc1OCc1c(F)ccc(F)c1Cl [Example I-268, 3-(2-Chloro-3,6-difluoro-benzyloxy)-5-(3-pyrrolidin-1-yl-phenyl)-pyridin-2-ylamine; compound with trifluoro-acetic acid] |
| 180 nM | CC(Oc1cc(-c2ccc(NS(=O)(=O)CCN3CCCCC3)cc2)cnc1N)c1c(F)ccc(F)c1Cl (stereo not drawn) [Example I-286, 2-Piperidin-1-yl-ethanesulfonic acid (4-{6-amino-5-[1-(2-cloro-3,6-difluoro-phenyl)-ethoxy]-pyridin-3-yl}-phenyl)-amide] |
| 140 nM | CC(Oc1cc(-c2ccc(NS(=O)(=O)CCN3CCC(O)CC3)cc2)cnc1N)c1c(F)ccc(F)c1Cl (stereo not drawn) [Example I-287, 2-(4-Hydroxy-piperidin-1-yl)-ethanesulfonic acid (4-{6-amino-5-[1-(2-chloro-3,6-difluoro-phenyl)-ethoxy]-pyridin-3-yl}-phenyl)-amide] |
| 150 nM | CC(Oc1cc(-c2ccc(NS(=O)(=O)CCN(C)C)cc2)cnc1N)c1c(F)ccc(F)c1Cl (stereo not drawn) [Example I-288] |
| 160 nM | CC(Oc1cc(-c2ccc(NS(=O)(=O)CCNC3CC3)cc2)cnc1N)c1c(F)ccc(F)c1Cl (stereo not drawn) [Example I-289, 2-Cyclopropylamino-ethanesulfonic acid (4-{6-amino-5-[1-(2-chloro-3,6-difluoro-phenyl)-ethoxy]-pyridin-3-yl}-phenyl)-amide] |
| 51 nM | CC(Oc1cc(-c2cccc(C(=O)N3CC[C@@H](N)C3)c2)cnc1N)c1c(Cl)ccc(F)c1Cl (stereo partly drawn) [Example I-293] |
| 79 nM | CC(Oc1cc(-c2ccc(C(=O)N3CCN(C)CC3)cc2)cnc1N)c1c(Cl)ccc(F)c1Cl (stereo not drawn) [Example I-295, (4-{6-Amino-5-[1-(2,6-dichloro-3-fluoro-phenyl)-ethoxy]-pyridin-3-yl}-phenyl)-(4-methyl-piperazin-1-yl)-methanone] |
| 164 nM | CC(Oc1cc(-c2ccc(NS(=O)(=O)CCNC3CC3)cc2)cnc1N)c1c(Cl)ccc(F)c1Cl (stereo not drawn) [Example I-297, 2-Cyclopropylamino-ethanesulfonic acid (4-{6-amino-5-[1-(2,6-dichloro-3-fluoro-phenyl)-ethoxy]-pyridin-3-yl}-phenyl)-amide] |
| 62 nM | CC(Oc1cc(-c2ccc(NS(=O)(=O)CCN3CC[C@@H](O)C3)cc2)cnc1N)c1c(Cl)ccc(F)c1Cl (stereo partly drawn) [Example I-299] |

| IC50 | SMILES |
| --- | --- |
| 64 nM | CC(Oc1cc(-c2ccc(C(=O)NCCCN3CCCC3)cc2)cnc1N)c1c(Cl)ccc(F)c1Cl (stereo not drawn) [Example I-301, 4-{6-Amino-5-[1-(2,6-dichloro-3-fluoro-phenyl)-ethoxy]-pyridin-3-yl}-N-(3-pyrrolidin-1-yl-propyl)-benzamide] |
| 71 nM | CC(Oc1cc(-c2ccc(C(=O)NCCN3CCOCC3)cc2)cnc1N)c1c(Cl)ccc(F)c1Cl (stereo not drawn) [Example I-302, 4-{6-Amino-5-[1-(2,6-dichloro-3-fluoro-phenyl)-ethoxy]-pyridin-3-yl}-N-(2-morpholin-4-yl-ethyl)-benzamide] |
| 72 nM | CC(Oc1cc(-c2ccc(C(=O)N3CC[C@@H](N)C3)cc2)cnc1N)c1c(Cl)ccc(F)c1Cl (stereo partly drawn) [Example I-304, (4-{6-Amino-5-[1-(2,6-dichloro-3-fluoro-phenyl)-ethoxy]-pyridin-3-yl}-phenyl)-((R)-3-amino-pyrrolidin-1-yl)-methanone] |
| 180 nM | CC(Oc1cc(-c2ccc(C(=O)N3CCC(N)CC3)cc2)cnc1N)c1c(Cl)ccc(F)c1Cl (stereo not drawn) [Example I-305, (4-{6-Amino-5-[1-(2,6-dichloro-3-fluoro-phenyl)-ethoxy]-pyridin-3-yl}-phenyl)-(4-amino-piperidin-1-yl)-methanone] |
| 24 nM | CC(Oc1cc(-c2ccc(C(=O)N3CC[C@H](O)C3)cc2)cnc1N)c1c(Cl)ccc(F)c1Cl (stereo partly drawn) [Example I-306, (4-{6-Amino-5-[1-(2,6-dichloro-3-fluoro-phenyl)-ethoxy]-pyridin-3-yl}-phenyl)-((S)-3-hydroxy-pyrrolidin-1-yl)-methanone] |
| 22 nM | CC(Oc1cc(-c2ccc(C(=O)N3CC[C@@H](O)C3)cc2)cnc1N)c1c(Cl)ccc(F)c1Cl (stereo partly drawn) [Example I-307, (4-{6-Amino-5-[1-(2,6-dichloro-3-fluoro-phenyl)-ethoxy]-pyridin-3-yl}-phenyl)-((R)-3-hydroxy-pyrrolidin-1-yl)-methanone] |
| 33 nM | CC(Oc1cc(-c2ccc(C(=O)N3CCC[C@@H]3CO)cc2)cnc1N)c1c(Cl)ccc(F)c1Cl (stereo partly drawn) [Example I-308, (4-{6-Amino-5-[1-(2,6-dichloro-3-fluoro-phenyl)-ethoxy]-pyridin-3-yl}-phenyl)-((R)-2-hydroxymethyl-pyrrolidin-1-yl)-methanone] |
| 40 nM | CCN(CC)CCNC(=O)c1ccc(-c2cnc(N)c(OC(C)c3c(Cl)ccc(F)c3Cl)c2)cc1 (stereo not drawn) [Example I-309, 4-{6-Amino-5-[1-(2,6-dichloro-3-fluoro-phenyl)-ethoxy]-pyridin-3-yl}-N-(2-diethylamino-ethyl)-benzamide] |
| 62 nM | CC(Oc1cc(-c2cccc(C(=O)N3CCN(C)CC3)c2)cnc1N)c1c(Cl)ccc(F)c1Cl (stereo not drawn) [Example I-312] |
| 69 nM | CC(Oc1cc(-c2cccc(C(=O)NC3CCN(C)CC3)c2)cnc1N)c1c(Cl)ccc(F)c1Cl (stereo not drawn) [Example I-313, 3-{6-Amino-5-[1-(2,6-dichloro-3-fluoro-phenyl)-ethoxy]-pyridin-3-yl}-N-(1-methyl-piperidin-4-yl) benzamide] |
| 60 nM | CC(Oc1cc(-c2cccc(C(=O)N3CCC[C@H]3CN3CCCC3)c2)cnc1N)c1c(Cl)ccc(F)c1Cl (stereo partly drawn) [Example I-314, (3-{6-Amino-5-[1-(2,6-dichloro-3-fluoro-phenyl)-ethoxy]-pyridin-3-yl}-phenyl)-((S)-2-pyrrolidin-1-ylmethyl-pyrrolidin-1-yl)-methanone] |
| 69 nM | CC(=O)N1CCN(CCNC(=O)c2cccc(-c3cnc(N)c(OC(C)c4c(Cl)ccc(F)c4Cl)c3)c2)CC1 (stereo not drawn) [Example I-315, N-[2-(4-Acetyl-piperazin-1-yl)-ethyl]-3-{6-amino-5-[1-(2,6-dichloro-3-fluoro-phenyl)-ethoxy]-pyridin-3-yl}-benzamide] |
| 48 nM | CC(Oc1cc(-c2cccc(C(=O)N3CC[C@H](N)C3)c2)cnc1N)c1c(Cl)ccc(F)c1Cl (stereo partly drawn) [Example I-316, (3-{6-Amino-5-[1-(2,6-dichloro-3-fluoro-phenyl)-ethoxy]-pyridin-3-yl}-phenyl)-((S)-3-amino-pyrrolidin-1-yl)-methanone] |
| 130 nM | CC(Oc1cc(-c2cccc(C(=O)N3CCC[C@@H]3CN3CCCC3)c2)cnc1N)c1c(Cl)ccc(F)c1Cl (stereo partly drawn) [Example I-318, (3-{6-Amino-5-[1-(2,6-dichloro-3-fluoro-phenyl)-ethoxy]-pyridin-3-yl}-phenyl)-((R)-2-pyrrolidin-1-ylmethyl-pyrrolidin-1-yl)-methanone] |
| 100 nM | CC(Oc1cc(-c2cccc(C(=O)NCCN3CCCC3)c2)cnc1N)c1c(Cl)ccc(F)c1Cl (stereo not drawn) [Example I-319, 3-{6-Amino-5-[1-(2,6-dichloro-3-fluoro-phenyl)-ethoxy]-pyridin-3-yl}-N-(2-pyrrolidin-1-yl-ethyl)-benzamide] |
| 130 nM | CC(Oc1cc(-c2cccc(C(=O)NCCCN3CCCC3)c2)cnc1N)c1c(Cl)ccc(F)c1Cl (stereo not drawn) [Example I-320, 3-{6-Amino-5-[1-(2,6-dichloro-3-fluoro-phenyl)-ethoxy]-pyridin-3-yl}-N-(3-pyrrolidin-1-yl-propyl)-benzamide] |
